The values that follow are results of earlier work, collected in patent US20210284969A1, “METHODS AND SYSTEMS FOR TRANSPORTATION AND CULTURE OF BUOYANT TISSUE” (eXo Cell, LLC, priority 2020, published 2021).

The test system of one series is brown adipose tissue. The settings on record: in humans.
In series [1] the test system is obese, diabetic yellow KK mice.

Take `Nc1nc(CC(=O)Nc2ccc(CCNC[C@H](O)c3ccccc3)cc2)cs1` [migrabegron]: the “brown adipose tissue activation” value in the series on brown adipose tissue was “activate brown adipose tissue”.

Take `C[C@H](Cc1ccc2c(c1)OC(C(=O)[O-])(C(=O)[O-])O2)NC[C@H](O)c1cccc(Cl)c1.[Na+].[Na+]` [CL-316243]: in series [1], the effect on obesity result was “ameliorated obesity”.

`O=S(=O)(Nc1ccc(CCNC[C@H](O)c2cccnc2)cc1)c1ccc(-c2nc(-c3ccc(C(F)(F)F)cc3)cs2)cc1` [L-796568]: in the series on obese human males, the anti-obesity effects result is recorded as “did not generate notable anti-obesity effects” and the energy expenditure entry was “improved energy expenditure”.
